Assay results: patent US11369599B2, “Melt-extruded solid dispersions containing an apoptosis-inducing agent” (AbbVie Inc., priority 2014, dated 2022)
Where two headings read alike, the source gives them in different places.

What was measured:
Bcl-2 protein = Bcl-2 protein (Homo sapiens (Human), UniProt P10415); assay: TR-FRET (Time-Resolved Fluorescence-Resonance-Energy-Transfer) Bcl-2 binding assay
Source text: The smaller the Ki value, the greater is the binding affinity.

[1] = log D at pH 7.4 by an HPLC method; assay type: physicochemical
[2] = First-in-human Phase 1 study (safety, PK) in relapsed or refractory CLL; assay type: in vivo; conditions: for AUC(0-inf): read-out: AUC (AUCINF)
Description: Three subjects were enrolled in the first cohort of CLL arm.
Subject 1: bulky disease, initial dose=200 mg
Subject 2: non-bulky disease, initial dose=200 mg
Subject 3: bulky disease, initial dose=100 mg
The dosing scheme for CLL arm was as follows: single dose on Week 1 Day −3; QD dose started on Week 1 Day 1. PK sampling was done on Week 1 Day −3 and Week 3 Day 1.

[3] = human CLL, Week 1 Day-3 single dose, Mean of 3 subjects
[4] = human CLL, Week 1 Day-3 single dose, Subject 1, 200 mg
[5] = human CLL, Week 1 Day-3 single dose, Subject 2, 200 mg
[6] = human CLL, Week 1 Day-3 single dose, Subject 3, 100 mg
[7] = human CLL, Week 3 Day 1, QD dosing, ID 101, 150 mg
[8] = human, plasma, oral, 100 mg, human CLL, Week 1 Day-3 single dose, Subject 3, 100 mg
[9] = human, plasma, oral, 200 mg, human CLL, Week 1 Day-3 single dose, Subject 1, 200 mg
[10] = human, plasma, oral, 200 mg, human CLL, Week 1 Day-3 single dose, Subject 2, 200 mg

Sequence of Bcl-2 protein (P10415 whole entry): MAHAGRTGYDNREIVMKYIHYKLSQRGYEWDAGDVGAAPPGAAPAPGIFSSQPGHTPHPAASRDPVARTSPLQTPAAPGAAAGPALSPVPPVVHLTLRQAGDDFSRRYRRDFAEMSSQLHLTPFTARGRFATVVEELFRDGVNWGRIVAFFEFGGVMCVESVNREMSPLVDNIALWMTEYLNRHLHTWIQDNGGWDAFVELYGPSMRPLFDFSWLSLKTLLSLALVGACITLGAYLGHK

## COCCON1C=C(Cl)C=C(S(=O)(=O)NC(=O)c2ccc(N3CCN(CC4=C(c5ccc(Cl)cc5)CC(C)(C)CC4)CC3)cc2Oc2cnc3[nH]ccc3c2)C1 [Compound 292, N-{[5-chloro-1-(2-methoxyethoxy)pyridin-3-yl]sulfonyl}-4-(4-{[2-(4-chlorophenyl)-4,4-dimethylcyclohex-1-en-1-yl]methyl}piperazin-1-yl)-2-(1H-pyrrolo[2,3-b]pyridin-5-yloxy)benzamide]
Bcl-2 protein
  Ki: 0.19 nM

## CC1(O)CCC(COc2ncc(S(=O)(=O)NC(=O)c3ccc(N4CCN(CC5=C(c6ccc(Cl)cc6)CC6(CC5)CC6)CC4)cc3Oc3cnc4[nH]ccc4c3)cc2Cl)CC1 (stereo not drawn) [Compound 341, N-({5-chloro-6-[(trans-4-hydroxy-4-methylcyclohexyl)methoxy]pyridin-3-yl}sulfonyl)-4-(4-{[5-(4-chlorophenyl)spiro[2.5]oct-5-en-6-yl]methyl}piperazin-1-yl)-2-(1H-pyrrolo[2,3-b]pyridin-5-yloxy)benzamide]
Bcl-2 protein
  Ki: < 0.01 nM

## CC1(C)CCC(CN2CCN(c3ccc(C(=O)NS(=O)(=O)c4cnc(NCC5CCC(C)(O)CC5)c([N+](=O)[O-])c4)c(Oc4cnc5[nH]ccc5c4)c3)CC2)=C(c2ccc(Cl)cc2)C1 (stereo not drawn) [Compound 376, 4-(4-{[2-(4-chlorophenyl)-4,4-dimethylcyclohex-1-en-1-yl]methyl}piperazin-1-yl)-N-[(6-{[(cis-4-hydroxy-4-methylcyclohexyl)methyl]amino}-5-nitropyridin-3-yl)sulfonyl]-2-(1H-pyrrolo[2,3-b]pyridin-5-yloxy)benzamide]
Bcl-2 protein
  Ki: < 0.001 nM

## CC1(C)CCC(CN2CCN(c3ccc(C(=O)NS(=O)(=O)c4cnc(NCC5CCC(C)(O)CC5)c([N+](=O)[O-])c4)c(Oc4cnc5[nH]ccc5c4)c3)CC2)=C(c2ccc(Cl)cc2)C1 (stereo not drawn) [Compound 371, 4-(4-{[2-(4-chlorophenyl)-4,4-dimethylcyclohex-1-en-1-yl]methyl}piperazin-1-yl)-N-[(6-{[(trans-4-hydroxy-4-methylcyclohexyl)methyl]amino}-5-nitropyridin-3-yl)sulfonyl]-2-(1H-pyrrolo[2,3-b]pyridin-5-yloxy)benzamide]
Bcl-2 protein
  Ki: < 0.001 nM

## COC1(C)CCC(c2ccc(Cl)cc2)=C(CN2CCN(c3ccc(C(=O)NS(=O)(=O)c4ccc(NCC5CCC(C)(O)CC5)c([N+](=O)[O-])c4)c(Oc4cnc5[nH]ccc5c4)c3)CC2)C1 (stereo not drawn) [Compound 377, 4-(4-{[2-(4-chlorophenyl)-5-methoxy-5-methylcyclohex-1-en-1-yl]methyl}piperazin-1-yl)-N-[(4-{[(trans-4-hydroxy-4-methylcyclohexyl)methyl]amino}-3-nitrophenyl)sulfonyl]-2-(1H-pyrrolo[2,3-b]pyridin-5-yloxy)benzamide]
Bcl-2 protein
  Ki: < 0.001 nM

## CC1(C)CCC(CN2CCN(c3ccc(C(=O)NS(=O)(=O)c4cnc(OCC5(F)CCC(O)CC5)c(Cl)c4)c(Oc4cnc5[nH]ccc5c4)c3)CC2)=C(c2ccc(Cl)cc2)C1 (stereo not drawn) [Compound 350, N-({5-chloro-6-[(cis-1-fluoro-4-hydroxycyclohexyl)methoxy]pyridin-3-yl}sulfonyl)-4-(4-{[2-(4-chlorophenyl)-4,4-dimethylcyclohex-1-en-1-yl]methyl}piperazin-1-yl)-2-(1H-pyrrolo[2,3-b]pyridin-5-yloxy)benzamide]
Bcl-2 protein
  Ki: < 0.01 nM

## CC1(C)CCC(CN2CCN(c3ccc(C(=O)NS(=O)(=O)c4ccc(NCC5CCC(C)(O)CC5)c([N+](=O)[O-])c4)c(Oc4cnc5[nH]ccc5c4)c3)CC2)=C(c2ccc(Cl)cc2)C1 (stereo not drawn) [Compound 337, 4-(4-{[2-(4-chlorophenyl)-4,4-dimethylcyclohex-1-en-1-yl]methyl}piperazin-1-yl)-N-[(4-{[(trans-4-hydroxy-4-methylcyclohexyl)methyl]amino}-3-nitrophenyl)sulfonyl]-2-(1H-pyrrolo[2,3-b]pyridin-5-yloxy)benzamide]
[1]
  log D: 5.48

## CC1(C)CCC(CN2CCN(c3ccc(C(=O)NS(=O)(=O)c4ccc(OCC5CCC(C)(O)CC5)c(Cl)c4)c(Oc4cnc5[nH]ccc5c4)c3)CC2)=C(c2ccc(Cl)cc2)C1 (stereo not drawn) [Compound 362, N-({3-chloro-4-[(trans-4-hydroxy-4-methylcyclohexyl)methoxy]phenyl}sulfonyl)-4-(4-{[2-(4-chlorophenyl)-4,4-dimethylcyclohex-1-en-1-yl]methyl}piperazin-1-yl)-2-(1H-pyrrolo[2,3-b]pyridin-5-yloxy)benzamide]
Bcl-2 protein
  Ki: 0.016 nM

## CC1(C)CCC(CN2CCN(c3ccc(C(=O)NS(=O)(=O)c4ccc(NCC5CCC(C)(O)CC5)c([N+](=O)[O-])c4)c(Oc4cnc5[nH]ccc5c4)c3)CC2)=C(c2ccc(Cl)cc2)C1 (stereo not drawn) [Compound 338, 4-(4-{[2-(4-chlorophenyl)-4,4-dimethylcyclohex-1-en-1-yl]methyl}piperazin-1-yl)-N-[(4-{[(cis-4-hydroxy-4-methylcyclohexyl)methyl]amino}-3-nitrophenyl)sulfonyl]-2-(1H-pyrrolo[2,3-b]pyridin-5-yloxy)benzamide]
[1]
  log D: 5.67

## CC1(C)CCC(CN2CCN(c3ccc(C(=O)NS(=O)(=O)c4ccc(NCC5CCOCC5)c([N+](=O)[O-])c4)c(Oc4cnc5[nH]ccc5c4)c3)CC2)=C(c2ccc(Cl)cc2)C1 [Compound 5, 4-(4-{[2-(4-chlorophenyl)-4,4-dimethylcyclohex-1-en-1-yl]methyl}piperazin-1-yl)-N-({3-nitro-4-[(tetrahydro-2H-pyran-4-ylmethyl)amino]phenyl}sulfonyl)-2-(1H-pyrrolo[2,3-b]pyridin-5-yloxy)benzamide]
[2]; [3]
  CL/F: 4.7 L/h
  Cmax/Dose: 0.008 (μg/mL)/mg
[2]; [4]
  CL/F: 8.6 L/h
  Cmax/Dose: 0.0037 (μg/mL)/mg
[2]; human CLL, Week 1 Day-3 single dose, Subject 1, 200 mg, 50 mg tablets
  Tmax: 6 h
[2]; [5]
  CL/F: 2.6 L/h
  Cmax/Dose: 0.0079 (μg/mL)/mg
[2]; [6]
  CL/F: 2.8 L/h
  Cmax/Dose: 0.0119 (μg/mL)/mg
[2]; [7]
  CL/F: 7.1 L/h
  Cmax/Dose: 0.0089 (μg/mL)/mg
  Tmax: 8 h
[2]; human subjects
  time to reach Cmax: around 7 hours
[2]; human, 200 mg dose, predicted
  predicted AUC: 30000 ng·h/mL
[2]; human, normalized to 200 mg dose
  observed AUC versus predicted AUC: about 2 fold
[2]; [8]
  Cmax: 1190 ng/mL
  AUC(0-inf): 36300 ng·h/mL
[2]; human, plasma, oral, 100 mg, human CLL, Week 1 Day-3 single dose, Subject 3, 100 mg, read-out: t1/2 (converted)
  half-life: 22.1 h
[2]; human, plasma, oral, 150 mg, human CLL, Week 3 Day 1, QD dosing, ID 101, 150 mg
  Cmax: 1340 ng/mL
[2]; human, plasma, oral, 150 mg, read-out: AUC (AUCss,24)
  AUC: 21100 ng·h/mL
[2]; [9]
  Cmax: 730 ng/mL
  AUC(0-inf): 23300 ng·h/mL
[2]; human, plasma, oral, 200 mg, human CLL, Week 1 Day-3 single dose, Subject 1, 200 mg, read-out: t1/2 (converted)
  half-life: 30.6 h
[2]; [10]
  Cmax: 1570 ng/mL
  AUC(0-inf): 76000 ng·h/mL
[2]; human, plasma, oral, 200 mg, human CLL, Week 1 Day-3 single dose, Subject 2, 200 mg, read-out: t1/2 (converted)
  half-life: 50.9 h
[2]; human, plasma, oral, human CLL, Week 1 Day-3 single dose, Harmonic Mean of 3 subjects, read-out: t1/2 (converted)
  half-life: 30.7 h
[2]; human, plasma, oral, human subjects, observed, read-out: terminal elimination half-life (converted)
  half-life: 31 h
[2]; human, predicted
  clearance, predicted value: 10 L/h
  terminal elimination half-life, predicted value: 15 h
[2]; plasma, oral, human CLL, Week 1 Day-3 single dose, Mean of 3 subjects, read-out: Tmax
  Tmax: 7.3 h
[2]; plasma, oral, human subjects, observed
  clearance: 78.3 mL/min
[2]; three CLL subjects, first cohort, initial dose 100-200 mg, 50 mg tablet form, all subjects
  adverse event after the first dose: tumor lysis syndrome
